The source of these data is paper PMC8197871, “Biochemical and Initial Structural Characterization of the Monocot Chimeric Jacalin OsJAC1” (International Journal of Molecular Sciences, 2021).

Data set [1] addresses T1, DIR domain of OsJAC1 (Oryza sativa, UniProt Q306J3, T49I).
T1 construct: gene JAC1; isolated dirigent domain SKLQITPCGM...FCPLLKGS; Thr to Ile point mutation (NDKKIGLG); N-terminal His6 tag and thrombin site kept; E. coli BL21(DE3), pET15b(+); dimer/tetramer by SEC
T1 sequence (Q306J3 5-159 T49I): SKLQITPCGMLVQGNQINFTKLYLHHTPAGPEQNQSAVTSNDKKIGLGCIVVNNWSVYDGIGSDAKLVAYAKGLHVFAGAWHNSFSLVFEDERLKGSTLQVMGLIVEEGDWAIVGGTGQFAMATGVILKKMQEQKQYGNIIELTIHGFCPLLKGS
The data set can be described thus: nano differential scanning fluorimetry; near-UV CD. The format is binding. As to conditions: 50 mM sugar, 4 mM DTT, 50 mM KPi pH 7.4; CD with 1 mM sugar.

Data set [2] concerns the target T1, DIR domain of OsJAC1. Put plainly: nano differential scanning fluorimetry. The format is binding. As to conditions: 50 mM sugar, 4 mM DTT, 50 mM KPi pH 7.4. (In general: In DSF a fluorescence change marks the thermal transition of the protein.)
In data set [3] the target is T2, OsJAC1 (Oryza sativa, UniProt Q306J3).
T2 construct: gene JAC1; full length, DIR + JRL domains; N-terminal His6 tag and thrombin site kept; E. coli BL21(DE3), pColdIV
T2 sequence (Q306J3 1-306): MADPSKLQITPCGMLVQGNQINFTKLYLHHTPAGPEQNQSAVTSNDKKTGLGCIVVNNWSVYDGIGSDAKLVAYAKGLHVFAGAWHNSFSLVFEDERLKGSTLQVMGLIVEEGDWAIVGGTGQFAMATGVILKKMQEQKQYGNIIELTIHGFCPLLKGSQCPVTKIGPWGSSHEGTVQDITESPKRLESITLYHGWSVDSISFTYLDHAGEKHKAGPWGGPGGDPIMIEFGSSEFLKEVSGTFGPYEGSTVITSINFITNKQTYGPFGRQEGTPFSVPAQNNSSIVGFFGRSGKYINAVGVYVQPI
The data set can be described thus: nano differential scanning fluorimetry. In kind it is binding. The note with it: 50 mM sugar, 4 mM DTT, 50 mM KPi pH 7.4, TM2 = DIR domain transition.

Data set [4] has as its target T2, OsJAC1. The data set can be described thus: nano differential scanning fluorimetry. The note with it: 50 mM sugar, 4 mM DTT, 50 mM KPi pH 7.4; TM1 = JRL domain transition. The format is binding.
The target in another data set is T3, JRL domain of OsJAC1 (Oryza sativa, UniProt Q306J3).
T3 construct: gene JAC1; isolated jacalin-related lectin domain QCPVTKIGPWGSSHEG...INAVGVYVQPI; N-terminal His6 tag and thrombin site kept; E. coli BL21(DE3), pET15b(+); thermal shifts measured in 1:1 mixture with the isolated DIR domain
T3 sequence (Q306J3 160-306): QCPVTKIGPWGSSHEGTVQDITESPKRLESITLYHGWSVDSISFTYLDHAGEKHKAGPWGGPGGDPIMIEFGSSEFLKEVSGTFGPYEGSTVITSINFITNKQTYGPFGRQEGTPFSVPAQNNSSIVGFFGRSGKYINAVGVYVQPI
Put plainly: nano differential scanning fluorimetry. The format is binding. The note with it: 50 mM sugar, 4 mM DTT, 50 mM KPi pH 7.4; 1:1 mixture with DIR domain.

For data set [5], the target named is DIR (dirigent) domain protein of OsJAC1, His6-tagged (Oryza sativa). The data set can be described thus: SEC; HiLoad 16/600 Superdex 200 pg; 50 mM KPi pH 7.4, 300 mM NaCl; 1 mL of 10 mg/mL protein injected, 1 mL/min; apparent masses from calibration proteins. (In general: SEC sorts molecules by how far they enter the pores of the column.)
Data set [6] concerns the molecule itself. Put plainly: dynamic light scattering; OsJAC1 1.1 mg/mL in 15 mM TRIS-HCl pH 7.4, alone or with 150 mM CaCl2, 50 mM lactose, 150 mM MgSO4 or 4 mM DTT; apparent molecular masses.

“And” between values parts separate entries of the source, which are not always exact repeats. Equal values may be shown once.

With `OC[C@H]1O[C@@H](O[C@@H]2[C@H](O)[C@@H](O)C(O)O[C@@H]2CO)[C@H](O)[C@@H](O)[C@H]1O` (some centres unmarked) [galactobiose], the dTM2 entry at DIR domain of OsJAC1 [1] is “galactobiose (DIR domain) and laminaribiose (JRL domain), caused major shifts in the CD spectra”.

Regarding `OC[C@H]1OC(O)[C@H](O)[C@@H](O)[C@H]1O` (some centres unmarked) [galactose], the results for the dTM2 on DIR domain of OsJAC1 [2] (printed as up to) and on OsJAC1 [3] (printed as up to) were ~ 3 K and ~ 2 K, respectively.

For `OC[C@H]1OC(O)[C@H](O)[C@@H](O)[C@@H]1O` (some centres unmarked) [glucose], the dTM1 at OsJAC1 [4] and at JRL domain of OsJAC1 was 1 K each time.

Consider `OC[C@H]1O[C@@H](O[C@H]2[C@H](O)[C@@H](O)C(O)O[C@@H]2CO)[C@H](O)[C@@H](O)[C@H]1O` (some centres unmarked) [lactose], for which the dTM2 result was “(e.g., galactose and lactose) had a positive impact on TM2 of the DIR domain” at DIR domain of OsJAC1 [2]; “(e.g., galactose and lactose) had a positive impact on TM2 of the DIR domain” on OsJAC1 [3].

Take `OC[C@H]1OC(O)[C@@H](O)[C@@H](O)[C@@H]1O` (some centres unmarked) [mannose]: the dTM1 at OsJAC1 [4] and at JRL domain of OsJAC1 was 1 K throughout.

The stoichiometry N is a count of units in the complex or per binding partner. For the molecule “DIR (dirigent) domain protein of OsJAC1, His6-tagged (domain or fragment)”, the stoichiometry N in data set [5] is 2 and 4.

B1: monocot chimeric jacalin OsJAC1 from Oryza sativa, full-length protein, His6-tagged (natural protein)
chain: MADPSKLQITPCGMLVQGNQINFTKLYLHHTPAGPEQNQSAVTSNDKKTGLGCIVVNNWSVYDGIGSDAKLVAYAKGLHVFAGAWHNSFSLVFEDERLKGSTLQVMGLIVEEGDWAIVGGTGQFAMATGVILKKMQEQKQYGNIIELTIHGFCPLLKGSQCPVTKIGPWGSSHEGTVQDITESPKRLESITLYHGWSVDSISFTYLDHAGEKHKAGPWGGPGGDPIMIEFGSSEFLKEVSGTFGPYEGSTVITSINFITNKQTYGPFGRQEGTPFSVPAQNNSSIVGFFGRSGKYINAVGVYVQPI
notes: OsJAC1 of rice (Oryza sativa), full-length protein; numbers count on: the His6-tagged construct as printed (23 tag and linker residues before M24); no cleavage of the tag is described; also called full-length OsJAC1; chimeric lectin OsJAC1; source: E. coli BL21(DE3), purified (IMAC on Ni-NTA, SEC); not shown: His6, N-terminal, kept
For the molecule B1, the binding result in data set [6] is “binds”.
